Source: ChEMBL document CHEMBL3046635, “Synthesis and Herbicidal Activity of New Pyrazole-4-carboxamide Derivatives” (J Pestic Sci, 2004)
Active and inactive are the calls of the source.

Tested on: Oryza sativa
Experiment: Phytotoxicity against Oryza sativa cv. Koshihikari (rice) at 2000 g a.i/ha measured after 14 days
Type: organism-based
Conditions: in vivo, 336 h

| Compound | Activity |
| --- | --- |
| CCCN(CC)C(=O)c1cn(C)nc1OCc1ccccc1 | Non-toxic |
| CCCN(CC)C(=O)c1cn(C)nc1OCc1ccccc1C(F)(F)F | Non-toxic |
| CCCN(CC)C(=O)c1cn(C)nc1OCc1ccc(C)cc1 | Non-toxic |

Tested on: Echinochloa oryzicola
Experiment: Pre-emergence herbicidal activity against Echinochloa oryzicola at 2000 g a.i/ha measured after 14 days
Type: functional, organism-based
Conditions: not given

| Compound | Activity |
| --- | --- |
| CCCN(CC)C(=O)c1cn(C)nc1OCc1ccccc1 | Active |
| CCCN(CC)C(=O)c1cn(C)nc1OCc1ccccc1C(F)(F)F | inactive |
| CCCN(CC)C(=O)c1cn(C)nc1OCc1ccc(C)cc1 | inactive |

Tested on: Eleocharis acicularis
Experiment: Post-emergence herbicidal activity against Eleocharis acicularis assessed as bleaching of stem/leaf parts; also: test concentration or dose not given here
Type: functional, organism-based
Conditions: not given

| Compound | Activity |
| --- | --- |
| CCCN(CC)C(=O)c1cn(C)nc1OCc1ccccc1 | Active |
| CCCN(CC)C(=O)c1cn(C)nc1OCc1ccccc1C(F)(F)F | Active |
| CCCN(CC)C(=O)c1cn(C)nc1OCc1ccc(C)cc1 | Active |

Tested on: Eleocharis acicularis
Experiment: Pre-emergence herbicidal activity against Eleocharis acicularis assessed as bleaching of stem/leaf parts
Type: functional, organism-based
Conditions: not given

| Compound | Activity |
| --- | --- |
| CCCN(CC)C(=O)c1cn(C)nc1OCc1ccccc1 | Active |
| CCCN(CC)C(=O)c1cn(C)nc1OCc1ccccc1C(F)(F)F | Active |
| CCCN(CC)C(=O)c1cn(C)nc1OCc1ccc(C)cc1 | Active |

Tested on: Ammannia multiflora
Experiment: Pre-emergence herbicidal activity against Ammannia multiflora assessed as bleaching of stem/leaf parts
Type: functional, organism-based
Conditions: not given

| Compound | Activity |
| --- | --- |
| CCCN(CC)C(=O)c1cn(C)nc1OCc1ccccc1 | Active |
| CCCN(CC)C(=O)c1cn(C)nc1OCc1ccccc1C(F)(F)F | Active |
| CCCN(CC)C(=O)c1cn(C)nc1OCc1ccc(C)cc1 | Active |

Tested on: Rotala indica
Experiment: Pre-emergence herbicidal activity against Rotala indica assessed as bleaching of stem/leaf parts
Type: functional, organism-based
Conditions: not given

| Compound | Activity |
| --- | --- |
| CCCN(CC)C(=O)c1cn(C)nc1OCc1ccccc1 | Active |
| CCCN(CC)C(=O)c1cn(C)nc1OCc1ccccc1C(F)(F)F | Active |
| CCCN(CC)C(=O)c1cn(C)nc1OCc1ccc(C)cc1 | Active |

Tested on: Elatine triandra
Experiment: Pre-emergence herbicidal activity against Elatine triandra assessed as bleaching of stem/leaf parts
Type: functional, organism-based
Conditions: not given

| Compound | Activity |
| --- | --- |
| CCCN(CC)C(=O)c1cn(C)nc1OCc1ccccc1 | Active |
| CCCN(CC)C(=O)c1cn(C)nc1OCc1ccccc1C(F)(F)F | Active |
| CCCN(CC)C(=O)c1cn(C)nc1OCc1ccc(C)cc1 | Active |

Tested on: Lindernia procumbens
Experiment: Pre-emergence herbicidal activity against Lindernia procumbens assessed as bleaching of stem/leaf parts
Type: functional, organism-based
Conditions: not given

| Compound | Activity |
| --- | --- |
| CCCN(CC)C(=O)c1cn(C)nc1OCc1ccccc1 | Active |
| CCCN(CC)C(=O)c1cn(C)nc1OCc1ccccc1C(F)(F)F | Active |
| CCCN(CC)C(=O)c1cn(C)nc1OCc1ccc(C)cc1 | Active |

Tested on: Schoenoplectiella juncoides
Experiment: Pre-emergence herbicidal activity against Schoenoplectiella juncoides assessed as bleaching of stem/leaf parts
Type: functional, organism-based
Conditions: not given

| Compound | Activity |
| --- | --- |
| CCCN(CC)C(=O)c1cn(C)nc1OCc1ccccc1 | Active |
| CCCN(CC)C(=O)c1cn(C)nc1OCc1ccccc1C(F)(F)F | Active |
| CCCN(CC)C(=O)c1cn(C)nc1OCc1ccc(C)cc1 | Active |

Tested on: Pontederia vaginalis
Experiment: Pre-emergence herbicidal activity against Monochoria vaginalis assessed as bleaching of stem/leaf parts
Type: functional, organism-based
Conditions: not given

| Compound | Activity |
| --- | --- |
| CCCN(CC)C(=O)c1cn(C)nc1OCc1ccccc1 | Active |
| CCCN(CC)C(=O)c1cn(C)nc1OCc1ccccc1C(F)(F)F | Active |
| CCCN(CC)C(=O)c1cn(C)nc1OCc1ccc(C)cc1 | Active |

Tested on: Cyperus difformis
Experiment: Pre-emergence herbicidal activity against Cyperus difformis assessed as bleaching of stem/leaf parts
Type: functional, organism-based
Conditions: not given

| Compound | Activity |
| --- | --- |
| CCCN(CC)C(=O)c1cn(C)nc1OCc1ccccc1 | Active |
| CCCN(CC)C(=O)c1cn(C)nc1OCc1ccccc1C(F)(F)F | Active |
| CCCN(CC)C(=O)c1cn(C)nc1OCc1ccc(C)cc1 | Active |

Tested on: Echinochloa oryzicola
Experiment: Pre-emergence herbicidal activity against Echinochloa oryzicola assessed as bleaching of stem/leaf parts
Type: functional, organism-based
Conditions: not given

| Compound | Activity |
| --- | --- |
| CCCN(CC)C(=O)c1cn(C)nc1OCc1ccccc1 | Active |
| CCCN(CC)C(=O)c1cn(C)nc1OCc1ccccc1C(F)(F)F | Active |
| CCCN(CC)C(=O)c1cn(C)nc1OCc1ccc(C)cc1 | Active |

Tested on: Ammannia multiflora
Experiment: Post-emergence herbicidal activity against Ammannia multiflora assessed as bleaching of stem/leaf parts; also: test concentration or dose not given here
Type: functional, organism-based
Conditions: not given

| Compound | Activity |
| --- | --- |
| CCCN(CC)C(=O)c1cn(C)nc1OCc1ccccc1 | Active |
| CCCN(CC)C(=O)c1cn(C)nc1OCc1ccccc1C(F)(F)F | Active |
| CCCN(CC)C(=O)c1cn(C)nc1OCc1ccc(C)cc1 | Active |

Tested on: Elatine triandra
Experiment: Post-emergence herbicidal activity against Elatine triandra assessed as bleaching of stem/leaf parts; also: test concentration or dose not given here
Type: functional, organism-based
Conditions: not given

| Compound | Activity |
| --- | --- |
| CCCN(CC)C(=O)c1cn(C)nc1OCc1ccccc1 | Active |
| CCCN(CC)C(=O)c1cn(C)nc1OCc1ccccc1C(F)(F)F | Active |
| CCCN(CC)C(=O)c1cn(C)nc1OCc1ccc(C)cc1 | Active |

Tested on: Rotala indica
Experiment: Post-emergence herbicidal activity against Rotala indica assessed as bleaching of stem/leaf parts; also: test concentration or dose not given here
Type: functional, organism-based
Conditions: not given

| Compound | Activity |
| --- | --- |
| CCCN(CC)C(=O)c1cn(C)nc1OCc1ccccc1 | Active |
| CCCN(CC)C(=O)c1cn(C)nc1OCc1ccccc1C(F)(F)F | Active |
| CCCN(CC)C(=O)c1cn(C)nc1OCc1ccc(C)cc1 | Active |

Tested on: Schoenoplectiella juncoides
Experiment: Post-emergence herbicidal activity against Schoenoplectiella juncoides assessed as bleaching of stem/leaf parts; also: test concentration or dose not given here
Type: functional, organism-based
Conditions: not given

| Compound | Activity |
| --- | --- |
| CCCN(CC)C(=O)c1cn(C)nc1OCc1ccccc1 | Active |
| CCCN(CC)C(=O)c1cn(C)nc1OCc1ccccc1C(F)(F)F | Active |
| CCCN(CC)C(=O)c1cn(C)nc1OCc1ccc(C)cc1 | Active |

Tested on: Lindernia procumbens
Experiment: Post-emergence herbicidal activity against Lindernia procumbens assessed as bleaching of stem/leaf parts; also: test concentration or dose not given here
Type: functional, organism-based
Conditions: not given

| Compound | Activity |
| --- | --- |
| CCCN(CC)C(=O)c1cn(C)nc1OCc1ccccc1 | Active |
| CCCN(CC)C(=O)c1cn(C)nc1OCc1ccccc1C(F)(F)F | Active |
| CCCN(CC)C(=O)c1cn(C)nc1OCc1ccc(C)cc1 | Active |

Tested on: Pontederia vaginalis
Experiment: Post-emergence herbicidal activity against Monochoria vaginalis assessed as bleaching of stem/leaf parts; also: test concentration or dose not given here
Type: functional, organism-based
Conditions: not given

| Compound | Activity |
| --- | --- |
| CCCN(CC)C(=O)c1cn(C)nc1OCc1ccccc1 | Active |
| CCCN(CC)C(=O)c1cn(C)nc1OCc1ccccc1C(F)(F)F | Active |
| CCCN(CC)C(=O)c1cn(C)nc1OCc1ccc(C)cc1 | Active |

Tested on: Cyperus difformis
Experiment: Post-emergence herbicidal activity against Cyperus difformis assessed as bleaching of stem/leaf parts; also: test concentration or dose not given here
Type: functional, organism-based
Conditions: not given

| Compound | Activity |
| --- | --- |
| CCCN(CC)C(=O)c1cn(C)nc1OCc1ccccc1 | Active |
| CCCN(CC)C(=O)c1cn(C)nc1OCc1ccccc1C(F)(F)F | Active |
| CCCN(CC)C(=O)c1cn(C)nc1OCc1ccc(C)cc1 | Active |

Tested on: Echinochloa oryzicola
Experiment: Post-emergence herbicidal activity against Echinochloa oryzicola assessed as bleaching of stem/leaf parts; also: test concentration or dose not given here
Type: functional, organism-based
Conditions: not given

| Compound | Activity |
| --- | --- |
| CCCN(CC)C(=O)c1cn(C)nc1OCc1ccccc1 | Active |
| CCCN(CC)C(=O)c1cn(C)nc1OCc1ccccc1C(F)(F)F | Active |
| CCCN(CC)C(=O)c1cn(C)nc1OCc1ccc(C)cc1 | Active |

Tested on: Eleocharis acicularis
Experiment: Pre-emergence herbicidal activity against Eleocharis acicularis at 2000 g a.i/ha measured after 14 days
Type: functional, organism-based
Conditions: not given

| Compound | Activity |
| --- | --- |
| CCCN(CC)C(=O)c1cn(C)nc1OCc1ccccc1 | Active |
| CCCN(CC)C(=O)c1cn(C)nc1OCc1ccccc1C(F)(F)F | inactive |
| CCCN(CC)C(=O)c1cn(C)nc1OCc1ccc(C)cc1 | inactive |

Tested on: Schoenoplectiella juncoides
Experiment: Pre-emergence herbicidal activity against Schoenoplectiella juncoides at 2000 g a.i/ha measured after 14 days
Type: functional, organism-based
Conditions: not given

| Compound | Activity |
| --- | --- |
| CCCN(CC)C(=O)c1cn(C)nc1OCc1ccccc1 | inactive |
| CCCN(CC)C(=O)c1cn(C)nc1OCc1ccccc1C(F)(F)F | inactive |
| CCCN(CC)C(=O)c1cn(C)nc1OCc1ccc(C)cc1 | inactive |

Tested on: Pontederia vaginalis
Experiment: Pre-emergence herbicidal activity against Monochoria vaginalis at 2000 g a.i/ha measured after 14 days
Type: functional, organism-based
Conditions: not given

| Compound | Activity |
| --- | --- |
| CCCN(CC)C(=O)c1cn(C)nc1OCc1ccccc1 | Active |
| CCCN(CC)C(=O)c1cn(C)nc1OCc1ccccc1C(F)(F)F | inactive |
| CCCN(CC)C(=O)c1cn(C)nc1OCc1ccc(C)cc1 | inactive |

Tested on: Ammannia multiflora
Experiment: Pre-emergence herbicidal activity against Ammannia multiflora at 2000 g a.i/ha measured after 14 days
Type: functional, organism-based
Conditions: not given

| Compound | Activity |
| --- | --- |
| CCCN(CC)C(=O)c1cn(C)nc1OCc1ccccc1 | Active |
| CCCN(CC)C(=O)c1cn(C)nc1OCc1ccccc1C(F)(F)F | inactive |
| CCCN(CC)C(=O)c1cn(C)nc1OCc1ccc(C)cc1 | inactive |

Tested on: Rotala indica
Experiment: Pre-emergence herbicidal activity against Rotala indica at 2000 g a.i/ha measured after 14 days
Type: functional, organism-based
Conditions: not given

| Compound | Activity |
| --- | --- |
| CCCN(CC)C(=O)c1cn(C)nc1OCc1ccccc1 | Active |
| CCCN(CC)C(=O)c1cn(C)nc1OCc1ccccc1C(F)(F)F | inactive |
| CCCN(CC)C(=O)c1cn(C)nc1OCc1ccc(C)cc1 | inactive |

Tested on: Elatine triandra
Experiment: Pre-emergence herbicidal activity against Elatine triandra at 2000 g a.i/ha measured after 14 days
Type: functional, organism-based
Conditions: not given

| Compound | Activity |
| --- | --- |
| CCCN(CC)C(=O)c1cn(C)nc1OCc1ccccc1 | Active |
| CCCN(CC)C(=O)c1cn(C)nc1OCc1ccccc1C(F)(F)F | inactive |
| CCCN(CC)C(=O)c1cn(C)nc1OCc1ccc(C)cc1 | inactive |

Tested on: Lindernia procumbens
Experiment: Pre-emergence herbicidal activity against Lindernia procumbens at 2000 g a.i/ha measured after 14 days
Type: functional, organism-based
Conditions: not given

| Compound | Activity |
| --- | --- |
| CCCN(CC)C(=O)c1cn(C)nc1OCc1ccccc1 | Active |
| CCCN(CC)C(=O)c1cn(C)nc1OCc1ccccc1C(F)(F)F | inactive |
| CCCN(CC)C(=O)c1cn(C)nc1OCc1ccc(C)cc1 | inactive |

Tested on: Cyperus difformis
Experiment: Pre-emergence herbicidal activity against Cyperus difformis at 2000 g a.i/ha measured after 14 days
Type: functional, organism-based
Conditions: not given

| Compound | Activity |
| --- | --- |
| CCCN(CC)C(=O)c1cn(C)nc1OCc1ccccc1 | Active |
| CCCN(CC)C(=O)c1cn(C)nc1OCc1ccccc1C(F)(F)F | inactive |
| CCCN(CC)C(=O)c1cn(C)nc1OCc1ccc(C)cc1 | inactive |
